Experimental data as given in patent US6773895B2, “Method for identifying substances which positively influence inflammatory conditions of chronic inflammatory airway diseases” (Boehringer Ingelheim Pharma KG, priority 2000, dated 2004).

What was measured:
[1] = test system: neutrophils; details: cited from earlier work
[2] = test system: MonoMac6 cells; test: Chemotaxis (migration) of MonoMac6 cells, 48-well chemotaxis chamber; type: cell-based, human; details: PMA-treated MonoMac6 cells, 4 hours of migration, fold increase in migrated cells over control medium
Method: Since an increased invasion of macrophages in peripheral airways of COPD patients can be observed, we tested the chemotactic ability of MonoMac6 cells which serve as a cell culture model for alveolar macrophages. Chemotaxis of MonoMac6 is determined by administering different ligands for FPRL-1.
MonoMac6 cells are treated with PMA for 24-30 hours in order to induce an activation state of the cells. Cells are harvested, washed twice with RPMI 1640 without supplements, and seeded at a density of 500,000 cells/well (24-well plate) in the presence of 10 nM PMA. After 24-30 hours cells are released from the substratum by repeated rinsing with a pipet, spun down, counted and adjusted to a density of 1×10^6 cells/ml of RPMI 1640 media without supplements but in the presence of 10 nM PMA. Chemotaxis is performed in a 48-well chemotaxis chamber (Neuroprobe Inc.) and polycarbonate membranes with a pore size of 8 μm (Neuroprobe Inc.). The lower wells of the chamber are filled with 28 μl of different concentrations of lipoxin A4, W-peptide, MCP-1 as a positive control, and RPMI 1640 media without supplements (including 10 nM PMA) as a negative control. The lower wells are covered with the polycarbonate membrane and the upper compartments of the chamber are filled with 50 μl of the cell suspension (50,000 cells per well). After 4 hours of migration at 37° C., 5% CO2 the cells on the upper part of the membrane are scraped off and the cells attached at the lower part of the membrane are stained with the Diff Quik Staining Set (Dade Behring) according to the manufacturer's protocol. Stained cells are counted in 6 to 8 high power fields at a magnification of 250× with a light microscope. The migration index represents the fold increase in the number of cells migrated in response to the chemoattractant over control medium.

[3] = test system: IL-8; test: Expression of IL-8 in MonoMac 6 cells after stimulation with FPRL-1 ligands (TaqMan); details: 200 nM
Method: (§1) In order to examine the effects of ligands for FPRL-1, MonoMac6 cells are seeded at a density of 250,000 cells/ml in 24-well plates (with 2 ml per well), grown for 24 hours at 37° C., 5% CO2 in a humidified atmosphere before stimulation with 200 nM lipoxin A4 (Biomol), W-peptide (1 μM) (synthesized by Metabion, Martinsried), and LPS (Sigma) as a positive control. Cells are harvested at different time points, and total RNA is isolated as described above using the Qiagen RNeasy Total RNA Isolation Kit (Qiagen).
(§2) The RNA is used for Taqman analysis in order to monitor the expression of inflammatory markers like TNFα, IL-8, and MMP-12.

[4] = test system: TNFα; test: Expression of TNFα in MonoMac 6 cells after stimulation with FPRL-1 ligands (TaqMan); details: 200 nM
Method: as §1, §2

[5] = test system: human bronchi; details: cited from earlier work
[6] = test system: monocytes; details: cited from earlier work
[7] = test system: MMP-12; test: Expression of MMP-12 in MonoMac 6 cells after stimulation with FPRL-1 ligands (TaqMan); details: 200 nM
Method: as §1, §2

[8] = test system: FPRL-1; test: Expression of FPRL-1 in MonoMac6 cells after stimulation (TaqMan analysis); type: cell-based, human; details: 10 nM PMA
Method: MonoMac6 cells are cultivated in 24-well plates in RPMI 1640 media, supplemented with 10% FCS (low endotoxin), 2 mM glutamine, 1× non-essential amino acids, 200 U/ml penicillin, 200 μg/ml streptomycin, and 5 ml OPI media supplement (Sigma). Cells are grown to a density of 600,000 cells per well (2 ml media) and stimulated with 10 nM PMA (phorbol 12-myristate 13-acetate) (Sigma), or 20 ng/ml LPS (lipopolysaccharides from Salmonella minnesota Re595) (Sigma). For smoke exposure, cells are incubated in media enriched with smoke for 10 minutes at 37° C., 5% CO2 at a density of 1×10^6 cells/ml. Enrichment of RPMI 1640 media with smoke is performed with the smoke of two cigarettes. The smoke of the cigarettes is pulled into a 50 ml syringe (about 20 volumes of a 50-ml syringe per cigarette) and then perfused into 100 ml of RPMI 1640 media without supplements. Afterwards, the pH of the smoke-enriched media is adjusted to 7.4 and the media is sterilized through a 0.2 μm filter before use. After the exposure with smoke cells are washed at least twice with RPMI 1640 in order to remove residual smoke particles. Then cells are seeded in 24-well plates with 400,000-600,000 cells per well filled with 2 ml of fresh RPMI 1640 media including the supplements mentioned above.
Both cell types are cultivated at 37° C., 5% CO2 in a humidified atmosphere and cells are harvested at various time points in order to monitor time-dependent effects. Cells are spun down and washed with PBS, resuspended in 400 μl of RLT buffer (Qiagen RNeasy Total RNA Isolation Kit) with 143 mM β-mercaptoethanol, the DNA is sheared with a 20 g needle for at least 5 times and stored at −70° C.
Total RNAs are isolated with the Qiagen RNeasy Total RNA Isolation Kit (Qiagen) according to the manufacturer's protocol. Purified RNA is digested with RNase-free DNase (Qiagen) and used for TaqMan analysis.
Taqman analysis is used to determine mRNA-levels for FPRL-1 in cell lines after treatment with and without various stimuli at different time points. Total RNA isolated from U937 cells that were treated for 3 days with […] is used in order to optimize reaction conditions for determining the mRNA-levels of FPRL-1 and setting standard curves for FPRL-1 and GAPDH (glyceraldehyde-3-phosphate dehydrogenase) as a housekeeping gene. Quantification of FPRL-1 is done with the following primers: Forward primer (rhHM63 668FP, SEQ ID NO:22), Reverse primer (hHM63 525(+)RP, SEQ ID NO:23) and TaqMan probe (rhHM63 629(−)TP, SEQ ID NO:24) labeled with reporter dye FAM at the 5′ end and quencher dye TAMRA at the 3′ end. The mRNA-levels for GAPDH are determined with a predeveloped kit for GAPDH “TaqMan GAPDH Control Reagents” (P/N 402869) from PE Applied Biosystems. The GAPDH probe is labeled with JOE as the reporter dye and TAMRA as the quencher dye. RT-PCR reactions are performed with the “TaqMan EZ RT-PCR Core Reagents” (P/N N808-0236) kit from Perkin Elmer. Standard curves for FPRL-1 and GAPDH are performed with increasing concentrations of RNA from U937 cells treated with 1 μM retinoic acid ranging from 0, 5, 10, 25, 50 to 100 ng per assay. Reaction mixes contain 1× TaqMan EZ-buffer, 3 mM Mn(Oac)2, 300 μM dATP, dCTP, dGTP, and 600 μM dUTP, 2.5 U rTth DNA polymerase, 0.25 U AmpErase UNG in a total volume of 25 μl. For analysis of FPRL-1 reaction mixes include 300 nM of rhHM63 668(−)FP and hHM63 525(+)RP and 100 nM of rhHM63 629(−)TP. The primer concentrations for determining GAPDH levels are 200 nM for each primer and 100 nM for the Taqman probe. In order to determine mRNA levels for FPRL-1 and GAPDH in human subjects and cell lines, 16 to 50 ng RNA per reaction are used. All samples are run in triplicate. The reactions are performed with “MicroAmp Optical 96-well reaction plates” sealed with “MicroAmp Optical Caps” (PE Applied Biosystems) in an ABI PRISM 7700 Sequence Detection System (PE Applied Biosystems). […]

CCCCC[C@H](O)/C=C/C=C\C=C\C=C\[C@@H](O)[C@@H](O)CCCC(=O)O [Lipoxin A4, lipoxin A4]
chemotaxis and adhesion in neutrophils [1]: inhibits | transmigration through epithelial cells [1]: downregulates | Migration Index ([2]; 10 nM): 0.86 | Migration Index ([2]; 100 nM): 1.31 | Migration Index ([2]; 1 μM): 1.68 | Expression of IL-8, Fold Induction ([3]; t 0 h): 1.00 fold | Expression of IL-8, Fold Induction ([3]; t 3 h): 1.99 fold | Expression of TNFα, Fold Induction ([4]; t 0 h): 1.00 fold | Expression of TNFα, Fold Induction ([4]; t 3 h): 2.43 fold | contraction of human bronchi [5]: dose-dependent contraction | chemotaxis, adherence and calcium release in monocytes [6]: stimulates | Expression of MMP-12, Fold Induction ([7]; t 0 h): 1.00 fold | Expression of MMP-12, Fold Induction ([7]; t 3 h): 1.42 fold

CCCCCCCCCCCCCC(=O)O[C@@H]1[C@@H](C)[C@@]2(O)[C@@H](C=C(CO)C[C@]3(O)C(=O)C(C)=C[C@@H]23)[C@@H]2C(C)(C)[C@]12OC(C)=O [PMA, phorbol 12-myristate 13-acetate]
ng FPRL-1 mRNA/ ng GAPDH mRNA ([8]; t 0 h): 0.00 ng FPRL-1 mRNA/ ng GAPDH mRNA | ng FPRL-1 mRNA/ ng GAPDH mRNA ([8]; t 1 h): 0.00 ng FPRL-1 mRNA/ ng GAPDH mRNA | ng FPRL-1 mRNA/ ng GAPDH mRNA ([8]; t 3 h): 0.00 ng FPRL-1 mRNA/ ng GAPDH mRNA | ng FPRL-1 mRNA/ ng GAPDH mRNA ([8]; t 12 h): 0.00 ng FPRL-1 mRNA/ ng GAPDH mRNA | ng FPRL-1 mRNA/ ng GAPDH mRNA ([8]; t 24 h): 0.00 ng FPRL-1 mRNA/ ng GAPDH mRNA | ng FPRL-1 mRNA/ ng GAPDH mRNA ([8]; t 48 h): 0.43 ng FPRL-1 mRNA/ ng GAPDH mRNA | ng FPRL-1 mRNA/ ng GAPDH mRNA ([8]; t 72 h): 0.01 ng FPRL-1 mRNA/ ng GAPDH mRNA

CSCC[C@H](NC(=O)[C@H](Cc1ccc(O)cc1)NC(=O)[C@H](CCCCN)NC(=O)[C@@H](N)Cc1c[nH]c2ccccc12)C(=O)N[C@H](C(=O)N[C@H](CCSC)C(N)=O)C(C)C [W-peptide, W-K-Y-M-V-m]
Migration Index ([2]; 10 nM): 0.95 | Migration Index ([2]; 100 nM): 1.23 | Migration Index ([2]; 1 μM): 2.46

monocyte chemotactic protein 1 [MCP-1]
Migration Index ([2]; 20 ng/ml): 2.59
